Experimental data reported in US20260284168A1, “RNA FOR PREVENTING OR TREATING TUBERCULOSIS” (priority 2023, published 2026).

Tested on: Caspase-1
Assay type: cell-based
Conditions: 50 μM

CCO[C@@H]1OC(=O)C[C@@H]1NC(=O)[C@@H]1CCCN1C(=O)[C@@H](NC(=O)c1ccc(N)c(Cl)c1)C(C)(C)C [VX765]
effect of Caspase-1 inhibitor on IL-1β release: inhibited IL-1ß release
